The text below walks through data of publication PMC7557402, “Evaluation of Nucleoside Analogs as Antimicrobials Targeting Unique Enzymes in Borrelia burgdorferi” (Pathogens, 2020).

In one experiment the target is Bgp (Borreliella burgdorferi, UniProt Q9F952). Kind of experiment: MTAN spectrophotometric activity assay (specific activity, Km). Type of experiment: biochemical, Borrelia burgdorferi. The protocol:
(§1) Recombinant MTANs were expressed and purified as previously described. Briefly, overnight 10 mL cultures of recombinant E. coli BL21(DE3) pLysS cells containing engineered pET30a expression plasmids for Bgp, MtnN or Pfs were grown at 37 °C with shaking (150 rpm) in LB broth supplemented with 50 µg/mL kanamycin and 0.5% glucose. The culture was diluted 1:50 in fresh medium and incubated at 37 °C with shaking (150 rpm) until the absorbance (600 nm) reached 0.4–0.6. Protein expression was induced with the addition of isopropyl β-D-1-thiogalactopyranoside (IPTG) to a final concentration of 1 mM and continued overnight incubation with shaking at 30 °C. Cells were harvested by centrifugation (10,000× g/15 min), and the pellet was washed once with ice-cold lysis buffer (50 mM sodium phosphate, pH = 8.0, 300 mM NaCl, 10 mM imidazole, 2mM β mercaptoethanol). Harvested cell pellets were resuspended in 10 mL fresh lysis buffer and lysed by sonication on ice using a Misonix Sonicator 300 (power setting 7, pulse 30 s, 1 min cooling with total sonication for 2.5 min). The cell lysates were centrifuged at 10,000× g for 15 min at 4 °C to remove debris, and the lysate was further filtered through a […] syringe filter to obtain a clear extract. Recombinant N-terminal hexahistidine tagged proteins were purified from the lysate using HisPur™ affinity columns (Thermo Scientific) according to the manufacturer’s specifications, and specifically eluted with 250 mM imidazole containing buffer (pH = 7). Eluted materials were analyzed by SDS-PAGE and Coomassie blue staining and found to be >95% homogeneous. Enzyme concentrations were determined using UV scans on a Cary100 spectrophotometer (Agilent) to determine the absorbance at 280 nm and applying extinction coefficients (0.1%) of 0.594 (Bgp), 0.637 (MtnN), and 0.404 (Pfs). Enzyme stocks (1 mg/mL) were prepared in 20% glycerol and stored at −80 °C.
(§2) Enzyme specific activities were determined using previously reported optimal pH conditions (50 mM sodium phosphate, pH = 7, for Bgp, MtnN; 50 mM sodium phosphate-citrate, pH = 5, for Pfs) and a spectrophotometric activity assay that measures the decrease in UV absorbance at 275 nm that occurs when MTA is cleaved to 5-methylthioribose and adenine (ε275 = 1.6 mM^−1cm^−1). The extinction coefficients for cleavage of other nucleosides were experimentally validated and found to be the same for MSeA, FSBA, and IADO (ε275 = 1.6 mM^−1cm^−1). Due to the added UV absorbance imparted by the 5′ purine group found in PurTA, the enzyme reactions were followed spectrophotometrically at 260 nm using the experimentally determined extinction coefficient of ε260 = 5.6 mM^−1cm^−1. Enzyme specific activities for MTA were generally 1–2 U/mg (1 U = µmol MTA hydrolyzed/min). The enzyme specific activities for other nucleosides were determined and reported in U/mg and as the % max specific activity (relative to MTA at 100%).
(§3) Kinetic constants have been previously reported for MTA [18]. As MSeA was also an efficient substrate for the B. burgdorferi nucleosidases, kinetic constants were determined using the activity assay described above, varying the nucleoside concentrations from 1 to 20 µM, and fitting the data on substrate-velocity plots to the Michaelis–Menten equation using GraphPad Prism (version 6):(1) Vo=Vmax[S]/Km+[S]

For the next experiment, the target named is MtnN (Borreliella burgdorferi, UniProt O50860). The description is as above. Type of experiment: biochemical, Borrelia burgdorferi. The protocol:
as §1, §2, §3

Another experiment concerns the target Pfs (Borreliella burgdorferi, UniProt O50162). The description is as above. Type of experiment: biochemical, Borrelia burgdorferi. The procedure:
as §1, §2, §3

Another experiment relates to B. burgdorferi N40. Briefly: Subculture without inhibitor after 7 days of treatment: bacteriostatic versus bactericidal. The format is cell-based, Borrelia burgdorferi. The protocol: After 7 days of treatment, a 5 µL aliquot from each treatment tube (and untreated control) was added to 1 mL of BSKII-RS medium to allow any remaining viable spirochetes in the sample to grow. After incubation for 7–21 days at 33 °C, the survival of the spirochetes was determined using dark-field microscopy to observe motility and by employing bioluminescence measurements to assess vitality of the recovered culture.
To further differentiate between bacteriostatic versus bactericidal activities of MTAN inhibitors, we subcultured drug treated spirochetes in the absence of inhibitors to recover any live B. burgdorferi remaining after seven days of inhibitor treatment (summarized in Table 4). If non-motile spirochetes from treated cultures were able to grow back, the inhibitor was determined to have a bacteriostatic effect at the selected concentration. […] Spirochete survival was determined by both dark-field microscopy and bioluminescence measurements. Microscopic examination allowed assessment of motility of the spirochetes whereas bioluminescence assays assessed recovery and viability of B. burgdorferi cells. […] By comparison, a reduction in bioluminescence compared to the untreated control was observed after treatment with dEt-ImmA at a 0.4 µM or greater concentration. […] After seven days of treatment, live spirochetes were only recovered when concentrations of ≤0.4 µM were used for dEt-ImmA and IADO.

Experiment [1] deals with Borrelia MTANs (Bgp, MtnN, Pfs). Briefly: MTAN activity/kinetics, across the nucleosidases. Type of experiment: biochemical. As to conditions: range over the B. burgdorferi nucleosidases. The protocol:
as §2, §3
For the other compounds, inhibition constants (Ki’s) were determined as previously described, using an MTA concentration of 100 µM and varying the inhibitor concentration from 0 to 100 µM. The inhibited velocity (Vo’) and uninhibited velocity (Vo) values were determined, and the ratio of Vo’/Vo plotted as a function of inhibitor concentration. Ki values were calculated from these plots by fitting the data to the equation for competitive inhibition using GraphPad Prism:(2) Vo^′/Vo=Km+[S]/Km+[S]+(Km[I]/Ki)

The mark [2] stands for this setting: pH 7, 1 U = 1 µmol MTA hydrolyzed per minute.

Chain of MtnN (O50860 entry or part of it): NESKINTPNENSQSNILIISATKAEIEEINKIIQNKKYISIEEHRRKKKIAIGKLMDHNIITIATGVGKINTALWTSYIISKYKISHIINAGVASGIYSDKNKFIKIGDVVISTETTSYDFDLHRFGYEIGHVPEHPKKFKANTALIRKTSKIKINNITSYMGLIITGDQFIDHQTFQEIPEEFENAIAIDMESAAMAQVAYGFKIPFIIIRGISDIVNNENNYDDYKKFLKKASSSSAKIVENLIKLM
Chain of Bgp (Q9F952 entry or part of it): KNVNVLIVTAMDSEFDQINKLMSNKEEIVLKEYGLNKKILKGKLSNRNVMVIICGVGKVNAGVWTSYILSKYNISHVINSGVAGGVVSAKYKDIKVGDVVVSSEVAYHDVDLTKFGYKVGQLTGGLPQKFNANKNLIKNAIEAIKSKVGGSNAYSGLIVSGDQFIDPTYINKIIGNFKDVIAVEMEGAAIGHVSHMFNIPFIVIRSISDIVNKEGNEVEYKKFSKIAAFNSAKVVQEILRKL
Chain of Pfs (O50162 entry or part of it): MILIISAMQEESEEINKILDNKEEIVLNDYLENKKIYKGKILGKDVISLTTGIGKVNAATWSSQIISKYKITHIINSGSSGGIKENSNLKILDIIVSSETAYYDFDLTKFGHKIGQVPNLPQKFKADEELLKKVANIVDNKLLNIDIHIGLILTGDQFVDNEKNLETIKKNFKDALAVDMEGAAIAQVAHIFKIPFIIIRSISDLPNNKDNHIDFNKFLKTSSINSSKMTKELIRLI

With `Nc1ncnc2c1ncn2[C@@H]1O[C@H](CI)[C@@H](O)[C@H]1O` [IADO, 5′-deoxy-5′-iodoadenosine], the “Specific Activity” value on Bgp (setting [2]) was 0.04 U/mg; on MtnN (setting [2]), 0.03 U/mg; on Pfs (pH 5, 1 U = 1 µmol MTA hydrolyzed per minute) it was 0.11 U/mg. For the same compound, the “% Max Specific Activity” value stood at 4% at Bgp (relative to MTA as a substrate), 3% at MtnN (relative to MTA as a substrate) and 6% on Pfs (relative to MTA as a substrate). Moreover, the “recovery of live spirochetes” value in the experiment with B. burgdorferi N40 (2 µM and 10 µM, 21 days of subculture in media lacking MTAN inhibitors) is “no live spirochetes were recovered”. Moreover, in the experiment on B. burgdorferi N40 (Dose: 2 µM, 10 µM, 7 days of treatment, then subculture), the “Inhibitor Activity” value is listed as “Bactericidal”. Also, the “concentrations at which live spirochetes were recovered” value in the experiment with B. burgdorferi N40 (after seven days of treatment) is recorded as at most 0.4 µM. Further, the “concentrations that exert bactericidal activity” value in the experiment on B. burgdorferi N40 (after seven days of treatment, bacteriostatic at lower concentrations) was at least 1 µM. For the same compound, in experiment [1], the “activity relative to that found for MTA” value is on record as 3–6%.
